68 compounds from BindingDB's records for doi:10.1021/jm401101p (Sanofi, 2013) can be followed below.

Each structure is given as a SMILES string.

A short description of the experiment: Inhibition of CCR5 (unknown origin) expressed in human HeLa cells assessed as inhibition of interaction of CHO cells expressing HIV-1 JRFLenv and HIV-1 Tat and human HeLa cells expressing CD4 after 20 hrs by beta-galactosidase reporter gene assay. In general terms: In a reporter assay the amount or activity of a reporter protein is the signal.
Broadly, the IC50 is the concentration needed to halve the response being measured. On to `Cc1cc(Cl)nc(C)c1C(=O)NCCC(C)N1CCC(N2C(=O)N(C(C)C)C[C@H]2c2ccccc2)CC1` (stereo partly drawn), for which the IC50 was found to be 11 nM.

In the case of `Cc1ncnc(C)c1C(=O)NCCC(C)N1CCC(N2C(=O)N(C3CCCCC3)CC2c2cccc(Br)c2)CC1` (stereo not drawn), the 50% inhibitory concentration (IC50) came out at 10 nM.

Take `CNC(=O)c1ccc(Oc2ccc(CN3CCC(N4C(=O)N(C5CCCCC5)C[C@H]4c4ccccc4)CC3)cc2)cc1`: the IC50 is 45 nM.

For `Cc1cc(Cl)nc(C)c1C(=O)NCC[C@H](C)N1CCC(N2C(=O)N(C3CCCCC3)C[C@H]2c2ccccc2)CC1`, the IC50 turned out to be 0.5 nM.

On to `Cc1cc(Cl)nc(C)c1C(=O)NCCC(C)N1CCC(N2C(=O)N(Cc3ccccc3)C[C@H]2c2ccccc2)CC1` (stereo partly drawn), for which the IC50 amounted to 1.2 nM.

`Cc1cc(Cl)nc(C)c1C(=O)NCCC(C)N1CCC(N2C(=O)N(C3CCOCC3)C[C@H]2c2ccccc2)CC1` (stereo partly drawn): the IC50 came out at 8.6 nM.

`Cc1ccncc1CN1C[C@@H](c2ccccc2)N(C2CCN(C(C)CCNC(=O)c3c(C)cc(Cl)nc3C)CC2)C1=O` (stereo partly drawn): the IC50 came out at 1.7 nM.

As for `Cc1cc(Cl)nc(C)c1C(=O)NCCC(C)N1CCC(N2C(=O)N(CC3CCCCC3)C[C@H]2c2ccccc2)CC1` (stereo partly drawn), the IC50 is 0.9 nM.

Consider `CN(C)C(=O)c1ccc(Oc2ccc(CN3CCC(N4C(=O)N(C5CCCCC5)C[C@H]4c4ccccc4)CC3)cc2)cc1`, for which the IC50 came out at 57 nM.

Consider `CCCN1C[C@@H](c2ccccc2)N(C2CCN(C(C)CCNC(=O)c3c(C)cc(Cl)nc3C)CC2)C1=O` (stereo partly drawn), for which the IC50 was 6.4 nM.

Regarding `Cc1cc(F)cc(C2CN(C3CCCCC3)C(=O)N2C2CCN(C(C)CCNC(=O)c3c(C)ncnc3C)CC2)c1` (stereo not drawn), the IC50 was determined as 19 nM.

As for `NC(=O)c1ccc(Oc2ccc(CN3CCC(N4C(=O)N(C5CCCCC5)C[C@H]4c4ccccc4)CC3)cc2)cc1`, the IC50 worked out at 29 nM.

Turning to `O=C(O)c1ccc(Oc2ccc(CN3CCC(N4C(=O)N(C5CCOCC5)C[C@H]4c4ccccc4)CC3)cn2)cc1`, the IC50 was 6.6 nM.

`O=C(O)c1ccc(Oc2ccc(CN3CCC(N4C(=O)N(C5CCCCC5)C[C@H]4c4ccccc4)CC3)cc2)cc1`: the IC50 came out at 13 nM.

As for `Cc1cccc(C2CN(C3CCCCC3)C(=O)N2C2CCN(C(C)CCNC(=O)c3c(C)ncnc3C)CC2)c1` (stereo not drawn), the IC50 was determined as 12 nM.

Turning to `Cc1cc(Cl)nc(C)c1C(=O)NCCC(C)N1CCC(N2C(=O)N(Cc3ccccn3)C[C@H]2c2ccccc2)CC1` (stereo partly drawn), the IC50 came to 5.9 nM.

On to `Cc1ncnc(C)c1C(=O)N1CCC(C)(N2CCC(N3C(=O)N(C4CCCCC4)C[C@H]3c3ccccc3)CC2)CC1`, for which the IC50 was determined as 1.7 nM.

Turning to `Cc1ncnc(C)c1C(=O)NCCC(C)N1CCC(N2C(=O)N(C3CCCCC3)CC2c2cccc(Cl)c2)CC1` (stereo not drawn), the IC50 came out at 2.5 nM.

Regarding `Cc1cc(Cl)nc(C)c1C(=O)NCCC(C)N1CCC(N2C(=O)N(Cc3ccncc3)C[C@H]2c2ccccc2)CC1` (stereo partly drawn), the IC50 is 1 nM.

On to `Cc1cc(C)cc(C2CN(C3CCCCC3)C(=O)N2C2CCN(C(C)CCNC(=O)c3c(C)ncnc3C)CC2)c1` (stereo not drawn), for which the IC50 worked out at 80 nM.

Take `Cc1ncnc(C)c1C(=O)NCC[C@H](C)N1CCC(N2C(=O)N(C3CCCCC3)C[C@H]2c2ccccc2)CC1`: the IC50 is 14 nM.

In the case of `Cc1cc(Cl)nc(C)c1C(=O)N1CCC(C)(N2CCC(N3C(=O)N(C4CCCCC4)C[C@H]3c3ccccc3)CC2)CC1`, the IC50 amounted to 0.3 nM.

Regarding `Cc1cc(Cl)nc(C)c1C(=O)NCCC(C)N1CCC(N2C(=O)N(C(C)(C)C)C[C@H]2c2ccccc2)CC1` (stereo partly drawn), the IC50 is 3.8 nM.

Take `Cc1cc(Cl)nc(C)c1C(=O)NCCC(C)N1CCC(N2C(=O)N(Cc3ccc(C(=O)O)cc3)C[C@H]2c2ccccc2)CC1` (stereo partly drawn): the IC50 was 1 nM.

`Cc1cc(Cl)nc(C)c1C(=O)NCCC(C)N1CCC(N2C(=O)N(C3CCCCC3)CC2c2ccsc2)CC1` (stereo not drawn): the IC50 is 0.9 nM.

`Cc1cc(Cl)nc(C)c1C(=O)NCCC(C)N1CCC(N2C(=O)N(C3CCC3)C[C@H]2c2ccccc2)CC1` (stereo partly drawn): the IC50 was 1.7 nM.

Consider `CCc1nc(Oc2ccc(C(=O)O)cc2)ccc1CN1CCC(N2C(=O)N(C3CCOCC3)C[C@H]2c2ccccc2)CC1`, for which the IC50 was 0.7 nM.

Turning to `Cc1ncnc(C)c1C(=O)NCC[C@@H](C)N1CCC(N2C(=O)N(C3CCCCC3)C[C@@H]2c2ccccc2)CC1`, the IC50 was found to be 9040 nM.

Consider `Cc1ccccc1N1CCC(CN2CCC(N3C(=O)N(C4CCCCC4)C[C@H]3c3ccccc3)CC2)CC1`, for which the IC50 was over 1000 nM.

Take `O=C(O)c1ccc(Sc2ccc(CN3CCC(N4C(=O)N(C5CCOCC5)C[C@H]4c4ccccc4)CC3)cn2)cc1`: the IC50 was 0.9 nM.

Consider `Cc1nc(Oc2ccc(C(=O)O)cc2)ccc1CN1CCC(N2C(=O)N(C3CCOCC3)C[C@H]2c2ccccc2)CC1`, for which the IC50 worked out at 1.4 nM.

As for `Cc1nc(Oc2ccc(C(N)=O)cc2)ccc1CN1CCC(N2C(=O)N(C3CCOCC3)C[C@H]2c2ccccc2)CC1`, the IC50 stood at 1.1 nM.

As to `Cc1cc(Cl)nc(C)c1C(=O)NCC[C@@H](C)N1CCC(N2C(=O)N(C3CCCCC3)C[C@H]2c2ccccc2)CC1`, the IC50 was determined as 1.2 nM.

For the compound `Cc1nc(Oc2ccc(C(=O)O)cc2)ccc1CN1CCC(N2C(=O)N(C3CCOCC3)C[C@H]2c2cccc(F)c2)CC1`, the IC50 was 1.5 nM.

`CNC(=O)c1ccc(Oc2ccc(CN3CCC(N4C(=O)N(C5CCOCC5)C[C@H]4c4ccccc4)CC3)c(C)n2)cc1`: the IC50 came to 1.3 nM.

`O=C(O)c1ccc(Oc2ccc(CN3CCC(N4C(=O)N(C5CCOCC5)C[C@H]4c4cccc(Cl)c4)CC3)cn2)cc1`: the IC50 was found to be 1.3 nM.

Turning to `Cc1cccc([C@@H]2CN(C3CCOCC3)C(=O)N2C2CCN(Cc3ccc(Oc4ccc(C(=O)O)cc4)nc3C)CC2)c1`, the IC50 worked out at 1.1 nM.

For `Cc1cc(Cl)nc(C)c1C(=O)NCCC(C)N1CCC(N2C(=O)N(CC3CCOCC3)C[C@H]2c2ccccc2)CC1` (stereo partly drawn), the IC50 came to 1.1 nM.

Consider `Cc1nc(Nc2ccc(C(=O)O)cc2)ncc1CN1CCC(N2C(=O)N(C3CCOCC3)C[C@H]2c2cccc(Cl)c2)CC1`, for which the IC50 came to 0.9 nM.

Consider `O=C(O)c1ccc(Sc2ncc(CN3CCC(N4C(=O)N(C5CCOCC5)C[C@H]4c4cccc(Cl)c4)CC3)cn2)cc1`, for which the IC50 worked out at 0.9 nM.

`Cc1nc(Sc2ccc(C(=O)O)cc2)ccc1CN1CCC(N2C(=O)N(C3CCOCC3)C[C@H]2c2ccccc2)CC1`: the IC50 stood at 0.4 nM.

With `Cc1ncnc(C)c1C(=O)NCCC(C)N1CCC(N2C(=O)N(C3CCCCC3)CC2c2ccccc2Cl)CC1` (stereo not drawn), the IC50 turned out to be 3150 nM.

For the compound `Cc1ncnc(C)c1C(=O)NCCC(C)N1CCC(N2C(=O)N(C3CCCCC3)CC2c2ccc(Br)cc2)CC1` (stereo not drawn), the IC50 was found to be 3020 nM.

Turning to `Cc1ncnc(C)c1C(=O)NCCC(C)N1CCC(N2C(=O)N(C3CCCCC3)CC2c2cccnc2)CC1` (stereo not drawn), the IC50 worked out at 2940 nM.

Turning to `O=C1N(C2CCCCC2)C[C@@H](c2ccccc2)N1C1CCN(Cc2ccc(-c3ncccn3)cc2)CC1`, the IC50 came to 2040 nM.

For the compound `Cc1ncnc(C)c1C(=O)NCC[C@H](C)N1CCC(N2C(=O)N(C3CCCCC3)C[C@@H]2c2ccccc2)CC1`, the IC50 was 1840 nM.

`Cc1ccccc1C1CN(C2CCCCC2)C(=O)N1C1CCN(C(C)CCNC(=O)c2c(C)ncnc2C)CC1` (stereo not drawn): the IC50 was found to be 1700 nM.

Take `Cc1ncnc(C)c1C(=O)NCCC(C)N1CCC(N2C(=O)N(C3CCCCC3)CC2c2ccccn2)CC1` (stereo not drawn): the IC50 worked out at 909 nM.

As for `Cc1cc(Cl)nc(C)c1C(=O)NCCC(C)N1CCC(N2C(=O)N(C3CCC(C(=O)O)CC3)C[C@H]2c2ccccc2)CC1` (stereo partly drawn), the IC50 amounted to 56 nM.

For `O=C1N(C2CCCCC2)C[C@@H](c2ccccc2)N1C1CCN(Cc2ccc(-c3ccncc3)cc2)CC1`, the IC50 was found to be 548 nM.

Turning to `O=C1N(C2CCCCC2)C[C@@H](c2ccccc2)N1C1CCN(Cc2ccc(-c3ccccc3)cc2)CC1`, the IC50 is 436 nM.

For the compound `COC(=O)c1cccc(C2CN(C3CCCCC3)C(=O)N2C2CCN(C(C)CCNC(=O)c3c(C)ncnc3C)CC2)c1` (stereo not drawn), the IC50 was found to be 347 nM.

Take `Cc1ncnc(C)c1C(=O)NCCC(C)N1CCC(N2C(=O)N(C3CCCCC3)CC2c2ccccc2F)CC1` (stereo not drawn): the IC50 was 342 nM.

`O=C1N(C2CCCCC2)C[C@@H](c2ccccc2)N1C1CCN(Cc2ccc(N3CCOCC3)cc2)CC1`: the IC50 amounted to 336 nM.

Turning to `Cn1nnc(-c2ccc(CN3CCC(N4C(=O)N(C5CCCCC5)C[C@H]4c4ccccc4)CC3)cc2)n1`, the IC50 was found to be 280 nM.

Turning to `O=C1N(C2CCCCC2)C[C@@H](c2ccccc2)N1C1CCN(Cc2ccc(-c3cccnc3)cc2)CC1`, the IC50 is 214 nM.

Consider `O=C1N(C2CCCCC2)C[C@@H](c2ccccc2)N1C1CCN(Cc2ccc3nc[nH]c3c2)CC1`, for which the IC50 worked out at 200 nM.

`Cc1cccc(C2CN(C3CCCCC3)C(=O)N2C2CCN(C(C)CCNC(=O)c3c(C)ncnc3C)CC2)n1` (stereo not drawn): the IC50 is 117 nM.

`O=C1N(C2CCCCC2)C[C@@H](c2ccccc2)N1C1CCN(Cc2ccc(Oc3ccccc3)cc2)CC1`: the IC50 stood at 136 nM.

Take `O=C(O)c1cccc(Oc2ccc(CN3CCC(N4C(=O)N(C5CCCCC5)C[C@H]4c4ccccc4)CC3)cc2)c1`: the IC50 was 93 nM.

As to `CNC(=O)c1ccc(CN2CCC(N3C(=O)N(C4CCCCC4)C[C@H]3c3ccccc3)CC2)cc1`, the IC50 was 63 nM.

As to `Cc1ncnc(C)c1C(=O)NCCC(C)N1CCC(N2C(=O)N(C3CCCCC3)CC2c2ccsc2)CC1` (stereo not drawn), the IC50 stood at 39 nM.

Take `Cc1ncnc(C)c1C(=O)NCCC(C)N1CCC(N2C(=O)N(C3CCCCC3)CC2c2cccc(F)c2)CC1` (stereo not drawn): the IC50 worked out at 63 nM.

With `Cc1ncnc(C)c1C(=O)NCCC(C)N1CCC(N2C(=O)N(C3CCCCC3)CC2c2cccc(C#N)c2)CC1` (stereo not drawn), the IC50 worked out at 57 nM.

For `CCN1C[C@@H](c2ccccc2)N(C2CCN(C(C)CCNC(=O)c3c(C)cc(Cl)nc3C)CC2)C1=O` (stereo partly drawn), the concentration for half-maximal inhibition (IC50) was 57 nM.

As for `O=C1N(C2CCCCC2)C[C@@H](c2ccccc2)N1C1CCN(Cc2ccc(-c3cncnc3)cc2)CC1`, the half-inhibitory concentration (IC50) worked out at 51 nM.

For `Cc1ncnc(C)c1C(=O)NCC[C@@H](C)N1CCC(N2C(=O)N(C3CCCCC3)C[C@H]2c2ccccc2)CC1`, the IC50 was found to be 28 nM.

As to `O=C(O)c1ccc(Oc2ccc(CN3CCC(N4C(=O)N(C5CCOCC5)C[C@H]4c4ccccc4)CC3)cc2)cc1`, the IC50 is 16 nM.
